Data from ChEMBL document CHEMBL4118210, “Synthesis of novel hetero ring fused pyridine derivatives; Their anticancer activity, CoMFA and CoMSIA studies” (Bioorg Med Chem Lett, 2018).

Columns and labels:
MCF7 = assay: Antiproliferative activity against human MCF7 cells by MTT assay; type: functional, cell-based
HeLa = assay: Antiproliferative activity against human HeLa cells by MTT assay; type: functional, cell-based
HepG2 = assay: Antiproliferative activity against human HepG2 cells by MTT assay; type: functional, cell-based
COLO 205 = assay: Antiproliferative activity against human COLO205 cells by MTT assay; type: functional, cell-based
HEK293 = assay: Antiproliferative activity against human HEK293 cells by MTT assay; type: cell-based

Row | Structure (SMILES) | IC50 (MCF7; read-out: IC50) | IC50 (MCF7; read-out: pIC50 (converted)) [µM] | IC50 (HeLa; read-out: IC50) | IC50 (HepG2) | IC50 (COLO 205; read-out: IC50) | IC50 (COLO 205; read-out: pIC50 (converted)) [µM] | IC50 (HEK293) | IC50 (HeLa; read-out: pIC50 (converted)) [µM]
1 | O=c1c2oc3nc(-c4ccccc4)cc(C(F)(F)F)c3c2ncn1/N=C/c1ccc(Cl)cc1 | 56.8 µM | 57.5 | > 220 µg/mL | > 220 µg/mL | 43.6 µM | 43.7 | > 220 µg/mL | 
2 | Cc1nc2c(oc3nc(-c4ccccc4)cc(C(F)(F)F)c32)c(=O)n1C1CCCC1 | 22.8 µM | 22.9 | 18.2 µM | 17.1 µM | 18.7 µM | 18.6 | 96 µM | 18.2
3 | Nc1c(C(=O)NC2CCCC2)oc2nc(-c3ccccc3)cc(C(F)(F)F)c12 | 59.8 µM | 60.3 | 25.8 µM | 32.4 µM | 51.1 µM | 51.3 | 85 µM | 25.7
4 | CCCn1cnc2c(oc3nc(-c4ccccc4)cc(C(F)(F)F)c32)c1=O | 85.5 µM | 85.1 | > 220 µg/mL | > 220 µg/mL | > 220 µg/mL |  | 90 µM | 
5 | Cc1nc2c(oc3nc(-c4ccccc4)cc(C(F)(F)F)c32)c(=O)n1C | > 220 µg/mL |  | > 220 µg/mL | > 220 µg/mL | > 220 µg/mL |  | > 220 µg/mL | 
6 | CCNC(=O)c1oc2nc(-c3ccccc3)cc(C(F)(F)F)c2c1N | 54 µM | 53.7 | 36.2 µM | 42.8 µM | 29.2 µM | 28.8 | 70 µM | 36.3
7 | Nc1c(C(=O)NC2CCCC2)oc2nc(-c3cccs3)cc(C(F)(F)F)c12 | 22.9 µM | 22.9 | 21.8 µM | 20.8 µM | 18.4 µM | 18.6 | 51 µM | 21.9
8 | Nc1c(C(=O)N/N=C/c2ccc(Br)cc2)oc2nc(-c3cccs3)cc(C(F)(F)F)c12 | 5.2 µM | 5.25 | 6.4 µM | 6.1 µM | 5.9 µM | 5.89 | 86 µM | 6.46
9 | O=c1c2oc3nc(-c4ccccc4)cc(C(F)(F)F)c3c2ncn1/N=C/c1ccccc1 | > 220 µg/mL |  | > 220 µg/mL | > 220 µg/mL | > 220 µg/mL |  | > 220 µg/mL | 
10 | Cc1ccc(/C=N/NC(=O)c2oc3nc(-c4ccccc4)cc(C(F)(F)F)c3c2N)cc1 | 10.2 µM | 10.2 | 11.8 µM | 8.9 µM | 9.1 µM | 9.12 | 69 µM | 11.7
11 | CNC(=O)c1oc2nc(-c3cccs3)cc(C(F)(F)F)c2c1N | 18 µM | 18.2 | 15.6 µM | 12.3 µM | 17.8 µM | 17.8 | 75 µM | 15.5
12 | CCn1cnc2c(oc3nc(-c4ccccc4)cc(C(F)(F)F)c32)c1=O | 82.4 µM | 83.2 | > 220 µg/mL | > 220 µg/mL | > 220 µg/mL |  | 121 µM | 
13 | CCn1c(C)nc2c(oc3nc(-c4ccccc4)cc(C(F)(F)F)c32)c1=O | > 220 µg/mL |  | > 220 µg/mL | > 220 µg/mL | > 220 µg/mL |  | > 220 µg/mL | 
14 | CCCNC(=O)c1oc2nc(-c3ccccc3)cc(C(F)(F)F)c2c1N | 35.6 µM | 35.5 | 36.1 µM | 37.4 µM | 38.9 µM | 38.9 | 81 µM | 36.3
15 | CCCn1c(C)nc2c(oc3nc(-c4ccccc4)cc(C(F)(F)F)c32)c1=O | 117 µM | 117 | > 220 µg/mL | > 220 µg/mL | > 220 µg/mL |  | 52 µM | 
16 | O=c1c2oc3nc(-c4cccs4)cc(C(F)(F)F)c3c2ncn1/N=C/c1ccccc1 | > 220 µg/mL |  | 42.3 µM | > 220 µg/mL | > 220 µg/mL |  | 90 µM | 42.7

Row | Structure (SMILES) | IC50 (MCF7; read-out: IC50) | IC50 (MCF7; read-out: pIC50 (converted)) [µM] | IC50 (HeLa; read-out: IC50) | IC50 (HepG2) | IC50 (COLO 205; read-out: IC50) | IC50 (COLO 205; read-out: pIC50 (converted)) [µM] | IC50 (HEK293) | IC50 (HeLa; read-out: pIC50 (converted)) [µM]
17 | O=c1[nH]cc(F)c(=O)[nH]1 [FLUOROURACIL] |  |  |  | 1.7 µM |  |  | 19.6 µM | 
18 | Cn1cnc2c(oc3nc(-c4cccs4)cc(C(F)(F)F)c32)c1=O | > 220 µg/mL |  | > 220 µg/mL | > 220 µg/mL | > 220 µg/mL |  | > 220 µg/mL | 50.1
19 | Cc1ccc(/C=N/n2cnc3c(oc4nc(-c5ccccc5)cc(C(F)(F)F)c43)c2=O)cc1 | > 220 µg/mL |  | > 220 µg/mL | > 220 µg/mL | > 220 µg/mL |  | > 220 µg/mL | 
20 | Nc1c(C(=O)N/N=C/c2ccc(Cl)cc2)oc2nc(-c3ccccc3)cc(C(F)(F)F)c12 | 11.9 µM | 12 | 4.1 µM | 12.1 µM | 11.1 µM | 11.2 | 81 µM | 4.07
21 | O=c1c2oc3nc(-c4cccs4)cc(C(F)(F)F)c3c2ncn1/N=C/c1ccc(Cl)cc1 | 42.1 µM | 42.7 | > 220 µg/mL | > 220 µg/mL | 51.2 µM | 51.3 | 102 µM | 
22 | CCCn1c(C)nc2c(oc3nc(-c4cccs4)cc(C(F)(F)F)c32)c1=O | 31.5 µM | 31.6 | 28.5 µM | 22.8 µM | 18.9 µM | 19.1 | 68 µM | 28.8
23 | O=c1c2oc3nc(-c4cccs4)cc(C(F)(F)F)c3c2ncn1/N=C/c1ccc(Br)cc1 | > 220 µg/mL |  | > 220 µg/mL | > 220 µg/mL | > 220 µg/mL |  | > 220 µg/mL | 
24 | Cc1nc2c(oc3nc(-c4cccs4)cc(C(F)(F)F)c32)c(=O)n1C1CCCC1 | > 220 µg/mL | 11.7 | > 220 µg/mL | > 220 µg/mL | > 220 µg/mL |  | 124 µM | 
25 | Cn1cnc2c(oc3nc(-c4ccccc4)cc(C(F)(F)F)c32)c1=O | > 220 µg/mL |  | > 220 µg/mL | 221 µM | > 220 µg/mL | 9.77 | > 220 µg/mL | 
26 | Cc1ccc(/C=N/n2cnc3c(oc4nc(-c5cccs5)cc(C(F)(F)F)c43)c2=O)cc1 | 29.7 µM | 29.5 | 42.3 µM | > 220 µg/mL | > 220 µg/mL |  | > 220 µg/mL | 42.7
27 | CNC(=O)c1oc2nc(-c3ccccc3)cc(C(F)(F)F)c2c1N | 37.4 µM | 37.2 | 40.2 µM | 41.2 µM | 36.8 µM | 37.2 | 62 µM | 45.7
28 | O=c1c2oc3nc(-c4ccccc4)cc(C(F)(F)F)c3c2ncn1C1CCCC1 | > 220 µg/mL |  | > 220 µg/mL | > 220 µg/mL | > 220 µg/mL |  | > 220 µg/mL | 
29 | O=c1c2oc3nc(-c4cccs4)cc(C(F)(F)F)c3c2ncn1C1CCCC1 | 62.7 µM | 63.1 | 50.2 µM | 49.8 µM | 42.5 µM | 42.7 | > 220 µg/mL | 
30 | O=c1c2oc3nc(-c4ccccc4)cc(C(F)(F)F)c3c2ncn1/N=C/c1ccc(Br)cc1 | > 220 µg/mL |  | > 220 µg/mL | > 220 µg/mL | > 220 µg/mL |  | > 220 µg/mL | 
31 | Nc1c(C(=O)N/N=C/c2ccccc2)oc2nc(-c3ccccc3)cc(C(F)(F)F)c12 | 14.2 µM | 14.1 | 13.4 µM | 13.1 µM | 12.2 µM | 12.3 | 70 µM | 13.5
